Source: US20240308998A1, “PYRROLOPYRIDONE DERIVATIVES USEFUL IN THE TREATMENT OF CANCER” (Tay Therapeutics Limited, priority 2021, published 2024)
Where a name gives a salt, the structure may show the parent alone.

How the values were obtained:
[1] = Intrinsic clearance in mouse liver microsomes; type: in vitro ADME; details: 1 uM, NADPH
Experimental: (§1) A 50 mM stock solution (in DMSO) was prepared for the compound. From the stock solution, a working solution of 0.5 mM was prepared by diluting the compound in DMSO. This concentration of working solution was prepared considering a final concentration of 1 uM with 0.1% DMSO. The compound (1 uL of working solution) was spiked in PBS with pH 7.4 (22 uL) at a concentration of 1 uM. Subsequently, 110 uL of 10 mM NADPH was added (as a co-factor). The sample was incubated at 37° C. for 15 min. Following this, pre-warmed mouse liver microsomes (27.5 uL; final protein conc. 0.5 mg/mL) were added. The samples were then incubated at 37° C. Aliquots of samples were withdrawn at 0, 5, 15, 30, 45 and 60 min. The reaction was stopped by using chilled acetonitrile containing internal standard. The samples were centrifuged and the supernatants analysed by LC-MS/MS. The percent compound remaining at each time point was calculated with respect to that of the 0 min sample. The data were then analysed to calculate half-life and intrinsic clearance (CLint). Note that control samples were run without NADPH and blank samples were prepared using DMSO without the test compound.

BRD4 BD1 = molecular target: T1, BRD4 BD1 (Homo sapiens, UniProt O60885); assay: NanoBRET bromodomain assay, BRD4 BD1; type: cell-based; details: HEK293 cells transfected with NanoLuc-BRD4-BD1
T1 construct: HEK293 cells were transfected using NanoLuc-BRD4-BD1 or NanoLuc-BRD4-BD2 fusion vectors; host or cells: HEK293
Summary of the method: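 Transfected HEK293 cells expressing NanoLuc-BRD4-BD1 were incubated with 1x tracer and serially diluted compound for 2 h at 37 °C, then given Nano-Glo substrate plus extracellular NanoLuc inhibitor. Donor 450 nm and acceptor 610 nm emissions were converted to background-corrected mBU, and IC50 was derived by nonlinear regression.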

BRD4 BD2 = molecular target: T2, BRD4 BD2 (Homo sapiens, UniProt O60885); assay: NanoBRET bromodomain assay, BRD4 BD2; type: cell-based; details: for Fold selectivity BRD4 BD1/BD2: IC50 BD1/IC50 BD2; for IC50: NanoBRET, HEK293 cells transfected with NanoLuc-BRD4-BD2
T2 construct: HEK293 cells were transfected using NanoLuc-BRD4-BD1 or NanoLuc-BRD4-BD2 fusion vectors; host or cells: HEK293
Summary of the method: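 HEK293 cells transfected with NanoLuc-BRD4-BD2 fusion for 20-24 h, then treated with compound plus 1x tracer for 2 h at 37° C. Donor 450 nm / acceptor 610 nm emissions converted to background-corrected mBU; IC50 by nonlinear regression; selectivity as IC50 BD1/IC50 BD2.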

Mouse plasma stability = type: in vitro ADME; details: 10 μM in mouse plasma, 37° C.
Experimental: The stock solution of compound (10 or 50 mM) was prepared in DMSO. From the stock solution, a working solution of compound (500 uM) was prepared in DMSO (100%). To 735 μL of mouse plasma, 15 μL of working solution of compound was added—resulting in a final concentration of 10 μM (2% DMSO) for the compound. The sample was then incubated at 37° C. Aliquot was withdrawn at time-points—0, 15, 30, 60, 90 and 120 mins. The reaction was stopped by using chilled acetonitrile containing internal standard (IS). The samples were centrifuged and the supernatants analyzed using LC-MS/MS. The percent remaining of the compound at each time point was calculated with respect to the control sample (0 min time-point).

[2] = Intrinsic clearance in rat liver microsomes; type: in vitro ADME; details: pH 7.4, NADPH, read-out: Rat Microsomal Stability T½
Experimental: as §1, with “pre-warmed rat” for “pre-warmed mouse”, “calculate half-life.” for “calculate half-life and intrinsic clearance (CLint).”, “test Compound.” for “test compound.”

[3] = Balb/c mouse pharmacokinetics after oral (PO) dosing; type: in vivo; details: male, plasma
Experimental: Compounds were formulated in 5% DMSO, 40% PEG-400, 55% Milli-Q water at a concentration of 0.5 mg/mL for 5 mg/kg and 3 mg/mL for 30 mg/kg PO dosing. […] Blood was sampled at various timepoints and plasma isolated. 10 μL of plasma with 5 μL of blank Balb/c mouse plasma were added to 200 μL of acetonitrile containing IS mixture. The samples were vortexed for 30 s. After centrifugation at 4 degree Celsius, 3900 rpm for 15 min, the supernatant was diluted 3 times with water. 20 μL of diluted supernatant was injected into the LC/MS/MS system for quantitative analysis and concentration of analyte determined by comparison with matrix matched standard curve. WinNonlin (Phoenix™, version 8.3) or other similar software was used for pharmacokinetic calculations.

| SMILES | Mouse Microsomal Stability (intrinsic clearance) [1] [ml/min/g liver] | IC50 (BRD4 BD1) [nM] | Fold selectivity BRD4 BD1/BD2 (BRD4 BD2) | IC50 (BRD4 BD2) [nM] | Mouse Plasma Stability % remaining at 120 minutes (Mouse plasma stability) [%] | half-life at 1 uM [2] [h] | Cmax ([3]; 5 mg/kg, Casette) [ng/mL] | bioavailability ([3]; 5 mg/kg, Casette) [%] | Cmax ([3]; 30 mg/kg, Individual) [ng/mL] | bioavailability ([3]; 30 mg/kg, Individual) [%] |
| --- | --- | --- | --- | --- | --- | --- | --- | --- | --- | --- |
| Cc1cc(-c2cc3c(-c4cc(=O)n(C)cc4Oc4c(C)cccc4C)cn(C)c(=O)c3[nH]2)n(C)n1 [Example 7, 2-(1,3-dimethyl-1H-pyrazol-5-yl)-4-(5-(2,6-dimethylphenoxy)-1-methyl-2-oxo-1,2-dihydropyridin-4-yl)-6-methyl-1,6-dihydro-7H-pyrrolo[2,3-c] pyridin-7-one] | – | > 1000 | xxx (Fold >200) | ≤ 50 | 84 | > 1 | – | – | – | – |
| Cc1cc(-c2cc3c(-c4cc(=O)n(C)cc4-c4ccccc4)cn(C)c(=O)c3[nH]2)n(C)n1 [Example 60, 2-(1,3-dimethyl-1H-pyrazol-5-yl)-6-methyl-4-(1-methyl-2-oxo-5-phenyl-1,2-dihydropyridin-4-yl)-1,6-dihydro-7H-pyrrolo[2,3-c] pyridin-7-one] | – | > 1000 | xxx (Fold >200) | ≤ 50 | – | – | 631 | 59.9 | – | – |
| Cc1cccc(C)c1Oc1cn(C)c(=O)cc1-c1cn(C)c(=O)c2[nH]c(-c3ccc(=O)n(C)c3)cc12 [Example 51, 5-(2,6-dimethylphenoxy)-1-methyl-4-[6-methyl-2-(1-methyl-6-oxopyridin-3-yl)-7-oxo-1H-pyrrolo[2,3-c]pyridin-4-yl]pyridin-2-one] | – | > 1000 | xx (Fold >50 and ≤200) | 50 to 200 | – | – | 24.4 | 6.83 | – | – |
| Cc1cc(F)cc(C)c1Oc1c(-c2cn(C)c(=O)c3[nH]c(C(=O)NC(C)(C)C)cc23)ccn(C)c1=O [Comparative Example B, reference compound] | 5.1 | – | – | – | 100 | – | – | – | – | – |
| Cc1cnc(-c2cc3c(-c4cc(=O)n(C)cc4-c4ccccc4)cn(C)c(=O)c3[nH]2)[nH]1 [Example 5, 6-methyl-2-(5-methyl-1H-imidazol-2-yl)-4-(1-methyl-2-oxo-5-phenyl-1,2-dihydropyridin-4-yl)-1,6-dihydro-7H-pyrrolo [2,3-c] pyridin-7-one] | 0.6 | > 1000 | xx (Fold >50 and ≤200) | 50 to 200 | – | – | – | – | – | – |
| CC(C)n1cc(-c2cc3c(-c4cc(=O)n(C)cc4-c4ccccc4)cn(C)c(=O)c3[nH]2)cn1 [Example 61, 4-[2-(1-isopropylpyrazol-4-yl)-6-methyl-7-oxo-1H-pyrrolo[2,3-c]pyridin-4-yl]-1-methyl-5-phenylpyridin-2-one] | – | > 1000 | xxx (Fold >200) | ≤ 50 | – | – | 622 | 51.2 | – | – |

Continued, values first:

| Mouse Microsomal Stability (intrinsic clearance) [1] [ml/min/g liver] | IC50 (BRD4 BD1) [nM] | Fold selectivity BRD4 BD1/BD2 (BRD4 BD2) | IC50 (BRD4 BD2) [nM] | Mouse Plasma Stability % remaining at 120 minutes (Mouse plasma stability) [%] | half-life at 1 uM [2] [h] | Cmax ([3]; 5 mg/kg, Casette) [ng/mL] | bioavailability ([3]; 5 mg/kg, Casette) [%] | Cmax ([3]; 30 mg/kg, Individual) [ng/mL] | bioavailability ([3]; 30 mg/kg, Individual) [%] | SMILES |
| --- | --- | --- | --- | --- | --- | --- | --- | --- | --- | --- |
| 0.6 | > 1000 | x (Fold >2 and ≤50) | 200 to 1000 | – | – | – | – | – | – | Cc1cccc(C)c1Oc1cn(C)c(=O)cc1-c1cn(C)c(=O)c2[nH]c(C3=NCCN3)cc12 [Example 4, 2-(4,5-dihydro-1H-imidazol-2-yl)-4-(5-(2,6-dimethylphenoxy)-1-methyl-2-oxo-1,2-dihydropyridin-4-yl)-6-methyl-1,6-dihydro-7H-pyrrolo[2,3-c]pyridin-7-one] |
| – | > 1000 | xxx (Fold >200) | ≤ 50 | 99 | > 1 | – | – | – | – | Cc1cccc(C)c1Oc1cn(C)c(=O)cc1-c1cn(C)c(=O)c2[nH]c(-c3ccccc3F)cc12 [Example 14, 4-(5-(2,6-dimethylphenoxy)-1-methyl-2-oxo-1,2-dihydropyridin-4-yl)-2-(2-fluorophenyl)-6-methyl-1,6-dihydro-7H-pyrrolo[2,3-c] pyridin-7-one] |
| – | > 1000 | xxx (Fold >200) | ≤ 50 | – | – | 718 | 100 | – | – | Cc1cccc(C)c1Oc1cn(C)c(=O)cc1-c1cn(C)c(=O)c2[nH]c(-c3ccc(F)cc3F)cc12 [Example 47, 2-(2,4-difluorophenyl)-4-(5-(2,6-dimethylphenoxy)-1-methyl-2-oxo-1,2-dihydropyridin-4-yl)-6-methyl-1,6-dihydro-7H-pyrrolo[2,3-c] pyridin-7-one] |
| – | 50 to 500 | xx (Fold >50 and ≤200) | ≤ 50 | – | – | 19.3 | 7.81 | – | – | Cc1cccc(C)c1Oc1cn(C)c(=O)cc1-c1cn(C)c(=O)c2[nH]c(-c3cn(C(C)C)nc3C#N)cc12 [Example 49, 4-{4-[5-(2,6-dimethylphenoxy)-1-methyl-2-oxopyridin-4-yl]-6-methyl-7-oxo-1H-pyrrolo[2,3-c]pyridin-2-yl}-1-isopropylpyrazole-3-carbonitrile] |
| – | 500 to 1000 | xx (Fold >50 and ≤200) | ≤ 50 | – | – | – | – | 1010 | 12.5 | Cc1cccc(C)c1Oc1cn(C)c(=O)cc1-c1cn(C)c(=O)c2[nH]c(-c3cn(C4COC4)nc3C)cc12 [Example 64, 4-(5-(2,6-dimethylphenoxy)-1-methyl-2-oxo-1,2-dihydropyridin-4-yl)-6-methyl-2-(3-methyl-1-(oxetan-3-yl)-1H-pyrazol-4-yl)-1,6-dihydro-7H-pyrrolo[2,3-c]pyridin-7-one] |
| – | > 1000 | xxx (Fold >200) | ≤ 50 | 42 | > 1 | – | – | – | – | Cc1cc(-c2cc3c(-c4cc(=O)n(C)cc4Oc4c(C)cccc4C)cn(C)c(=O)c3[nH]2)cc(C)n1 [Example 17, 4-(5-(2,6-dimethylphenoxy)-1-methyl-2-oxo-1,2-dihydropyridin-4-yl)-2-(2,6-dimethylpyridin-4-yl)-6-methyl-1,6-dihydro-7H-pyrrolo[2,3-c] pyridin-7-one.TFA] |
| – | 50 to 500 | xx (Fold >50 and ≤200) | ≤ 50 | 98 | > 1 | – | – | – | – | Cc1cccc(C)c1Oc1cn(C)c(=O)cc1-c1cn(C)c(=O)c2[nH]c(-c3cnn(C(C)C)c3)cc12 [Example 11, 4-(5-(2,6-dimethylphenoxy)-1-methyl-2-oxo-1,2-dihydropyridin-4-yl)-2-(1-isopropyl-1H-pyrazol-4-yl)-6-methyl-1,6-dihydro-7H-pyrrolo[2,3-c] pyridin-7-one] |
